Test results as given in patent EP3235511A1, “SULPHONAMIDE COMPOUNDS FOR USE IN THE TREATMENT OF HHV-8-ASSOCIATED DISEASES” (UNIVERSITA' DEGLI STUDI DI CAGLIARI, priority 2016, dated 2017).
Converted amounts (≈) assume the structure as drawn. Read-outs that look alike come from different tables or passages of the source.

Assays:
MDM2-p53 complex = biological target: T1, MDM2-p53 complex (Homo sapiens, UniProt Q00987); assay: ELISA-based P53-MDM2 binding assay
T1 construct: purchased Sigma
Procedure: In short, 96-well ELISA micro-plates (from Greiner Bio One, Austria) were coated for incubation overnight with 2 µg/mL p53 (human recombinant from Sigma) in PBS at 4 °C. The next day, the coating buffer was removed and the plates were incubated with Chemi-Blocker blocking buffer (from Merck-Millipore, Italy) for 2 hours at room temperature to block non-specific protein binding sites on the plate. […] The compounds under test were dissolved in DMSO (dimethyl sulfoxide, 5 mg/mL stock solution) and diluted in blocking buffer to obtain a final concentration of 50 µg/mL. The total incubation time of GST-MDM2 was 1 h. In order to evaluate the possible interactions of the compounds of the invention with, alternately, p53 and/or MDM2, the tests were conducted in three ways: a) pre-incubation with p53: the compounds were added to the coated micro-wells 30 min. before the GST-MDM2; b) pre-incubation with MDM2: the compounds were added to the GST-MDM2 solution for 30 minutes before adding to the wells; c) incubation after the formation of the p53-MDM2 complex: the compounds were added to the wells 30 minutes after treatment of GST-MDM2. After incubation, the plates were washed 4 times with PBST to remove the unbound MDM2 and incubated with a specific rabbit anti-GST monoclonal antibody (Sigma) diluted in 1/2000 blocking buffer for 1 h, followed by washing and incubation with a secondary immunoglobulin antibody conjugated with 1/200 anti-rabbit (horseradish) HR-peroxidase for 1 h (goat anti-rabbit IgG-HRP, Sigma). […] The absorbance was measured with a Microtiter plate reader (Model 680, from Bio-Rad, Hercules, CA) equipped with a 450 nm filter and the respective luminescence units (RLU) were measured. The inhibition percentage of the p53-MDM2 complex was calculated as follows: […]
Data are expressed as µg/mL ± SE average of three independent experiments.

HHV 8 in latent stage = assay: Detection of latent HHV 8 DNA by RT-PCR in BC3 cells; assay type: cell-based; settings: BC-3, 144 h, 6 days of culture, drug 100 µM, read-out: inhibition of viral DNA (antiviral activity)
Procedure: The antiviral activity of the sulphonamide compounds of the present invention was investigated using two different types of tests. In the first one, the DNA of HHV 8 in latent stage was detected by RT-PCR (Real Time- Polymerase Chain Reaction) (see Fig. 1) and in the second one, the LANA antigen was tested using a flow cytometric assay.

[1] = Cytotoxicity (MTT cell viability) on HUVEC primary cells; assay type: cell-based; settings: human
Procedure: (§1) A stock of human HUVEC umbilical cord primary cells (Invitrogen Life Technologies, UK) was cultured in a culture medium M200 (Gibco, Life Technologies, UK) with low serum growth supplement (LSGS, Invitrogen Life Technologies, UK). The HUVEC cells were always kept in a semi-confluent state and were sub-cultured at least once a week. Prior to testing, the cells were sub-cultured no more than 3-5 times. The BC3 cells permanently infected with HHV 8 were cultured in a RPMI 1640 medium supplemented with a 10% fetal calf serum (FCS) (Invitrogen Life Technologies, UK). The BC3 cells were used to produce 100x concentrated stocks of HHV 8, as described in the literature. The pellets of the virus was suspended in RPMI, filtered through a 0.22 µm filter and stored at -80 °C until use. The quantitative analysis of viral genomes present in the stock preparation was obtained by a real-time polymerase chain reaction (qPCR). […] For infection of cells, approximately 5.0 x 10^4 HUVEC cells/mL were seeded in 12 multi-well plates. The cells were infected with HHV 8, concentrated to a multiplicity of at least 10-20 genomes per cell in an M200 containing 2 µg/mL polibrene (esadimetrin bromide) for 2 hours at 37 °C. […] Only cell mono-layers with at least 70-80% of HHV 8 infected cells were used for the experiments.

in vitro = settings: human, thp-1 cells
Procedure: The THP-1 cells were purchased from Life Technologies (UK) and were cultured in RPMI 1640 medium with 10% fetal bovine serum (FBS).
The cytotoxicity of the compounds under test was assessed by measuring the effect on the cell morphology and the cell viability in vitro. Cell mono-layers were prepared in 24-well tissue culture plates and exposed to various concentrations of the compounds being tested.
The plates were controlled by optical microscopy after 24, 48 and 72 h. Cytotoxicity was evaluated as morphologic changes (for example, rounding, contractions, detachments). The cell viability was determined by means of a tetrazolium-based colorimetric method using the compound 3-(4,5-dimethylthiazol-2-yl)-2,5-diphenyl-tetrazolium bromide (MTT). The cytotoxic dose of 50% (CD50) is the concentration of the compound which reduces the absorbency of the control sample by 50%.

[2] = Cytotoxicity (MTT cell viability) on BC3 cells; assay type: cell-based; settings: human
Procedure: as §1

KSHV virus [3] = settings: latent stage; cited from earlier work
KSHV virus [4] = settings: lytic stage; cited from earlier work
[5] = read-out: inhibition of MDM2-p53 complex formation

T1 sequence (Q00987 whole entry, one chain of several): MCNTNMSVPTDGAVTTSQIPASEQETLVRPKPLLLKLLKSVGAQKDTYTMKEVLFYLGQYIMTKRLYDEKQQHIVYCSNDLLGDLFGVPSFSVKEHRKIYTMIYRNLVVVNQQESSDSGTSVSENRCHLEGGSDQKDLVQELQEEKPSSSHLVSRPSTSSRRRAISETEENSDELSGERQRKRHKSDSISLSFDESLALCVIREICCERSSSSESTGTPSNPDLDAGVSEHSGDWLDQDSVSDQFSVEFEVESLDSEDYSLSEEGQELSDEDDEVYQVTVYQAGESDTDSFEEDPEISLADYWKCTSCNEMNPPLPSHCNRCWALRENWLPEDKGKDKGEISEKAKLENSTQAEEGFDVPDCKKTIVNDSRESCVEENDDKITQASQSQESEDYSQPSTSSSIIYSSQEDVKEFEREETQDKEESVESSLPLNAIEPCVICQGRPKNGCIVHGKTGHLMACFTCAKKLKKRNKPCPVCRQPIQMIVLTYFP

Structure (SMILES)	inhibition at 100 µM (HHV 8 in latent stage) [%]	Action on the latent virus (KSHV virus [3])	Action on the lytic virus (KSHV virus [4])	further results
Nc1ccc(S(N)(=O)=O)cc1 [SA4, sulphanilamide]	92			inhibition at 50 µg/mL (MDM2-p53 complex; [5]): 50%
Nc1ccc(S(=O)(=O)Nc2nccs2)cc1 [ST5, sulfathiazole]	88.5			CC50 [1]: ~250 µg/mL (≈ 979 µM); CC50 (in vitro): ~30 µg/mL (≈ 117 µM); inhibition at 50 µg/mL (MDM2-p53 complex; added to the ELISA wells 60 minutes after the complex had formed, 50 µg/mL, p = < 0.01, read-out: breaking down the complex already formed): ~48%; inhibition at 50 µg/mL (MDM2-p53 complex; compound added before the formation of the complex, 50 µg/mL, read-out: inhibition of MDM2-p53 complex formation): ~70%; CC50 [2]: 100 µg/mL (≈ 393 µM)
CC1(C)[C@@H](O[C@H]2O[C@H](C(=O)O)[C@@H](O)[C@H](O)[C@H]2O[C@@H]2O[C@H](C(=O)O)[C@@H](O)[C@H](O)[C@H]2O)CC[C@]2(C)[C@H]3C(=O)C=C4[C@@H]5C[C@@](C)(C(=O)O)CC[C@]5(C)CC[C@@]4(C)[C@]3(C)CC[C@@H]12 [Glycyrrhizic acid]		Apoptosis	inhibition	
Nc1nc2c(ncn2COCCO)c(=O)[nH]1 [Acyclovir]		no inhibition	inhibition	
Cc1cc(NS(=O)(=O)c2ccc(N)cc2)no1 [BC6, sulfamethoxazole]	93			inhibition at 50 µg/mL (MDM2-p53 complex; [5]): 56%
O=C(O)P(=O)(O)O [Foscarnet]		no inhibition	inhibition	
[H]/N=C(/N)NS(=O)(=O)c1ccc(N)cc1 [SG3, sulphaguanidine]	52.3			CC50 [1]: ~500 µg/mL (≈ 2330 µM); CC50 (in vitro): ~125 µg/mL (≈ 583 µM); CC50 [2]: 100 µg/mL (≈ 467 µM)
